These results are taken from US8581605B2 (priority 2006, dated 2013).

The experiment concerns the target αHL ion channel (Staphylococcus aureus, UniProt P09616). The format is biochemical. To be noted: pH 7.4.

Chain of αHL ion channel (P09616 27-319 limits assumed): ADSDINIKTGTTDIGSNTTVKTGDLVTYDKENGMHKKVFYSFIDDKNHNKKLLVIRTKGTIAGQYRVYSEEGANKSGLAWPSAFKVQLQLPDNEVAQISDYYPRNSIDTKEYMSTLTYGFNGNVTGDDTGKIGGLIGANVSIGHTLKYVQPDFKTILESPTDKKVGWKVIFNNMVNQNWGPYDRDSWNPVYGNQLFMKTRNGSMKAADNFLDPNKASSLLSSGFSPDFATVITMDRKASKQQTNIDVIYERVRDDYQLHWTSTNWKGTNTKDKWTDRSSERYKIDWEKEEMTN

For hepta-6-sulfato-β-cyclodextrin [s7βCD], the “reduction of conductance through the αHL when s7βCD is bound” value is recorded as roughly 90%.
